Experimental data published in patent US6884792B2, “Bretylium compositions and kits and their use in preventing and treating cardiovascular conditions” (priority 1999, dated 2005).
Where a name gives a salt, the structure may show the parent alone. Read-outs that look alike come from different tables or passages of the source. Blank lines part the entries; values can stand above or below the compound they belong to.

How the values were obtained:
[1] = test system: Mongrel dogs; experiment: Oral bretylium-tosylate/facilitating-anion combinations: VFT and EVRP; format: in vivo; details: dog; 50 milliamps
Experimental: A catheter electrode was passed under fluoroscopic observation via the jugular vein into the apex of the right ventricle and screwed into place in the myocardium of the right ventricle. […] After the control VFT and EVRP were measured, the compositions were orally administered in capsule form via a stomach tube. […] The VFT and EVRP were measured at various times following this administration. […] See also FIGS. 8-10.

[2] = test system: dogs; experiment: VFT 1-5 hours after injection of bretylium tosylate and/or β-receptor blockers; format: in vivo, dog
Experimental: The increase in efficacy of the bretylium cation afforded by administering the bretylium cation in combination with a β-receptor blocker was tested by administering via injection bretylium tosylate alone, various β-receptor blockers alone, and various combinations of bretylium tosylate and β-receptor blockers to dogs, and then measuring the ventricular fibrillation threshold of the dogs 1-5 hours after drug administration.

[3] = test system: mongrel dog
Experimental: At time zero, a 5 milliamp stimulus was applied and a ventricular fibrillation threshold (VFT) was established.
At 1 hour and 20 minutes, the dog was given a 50 mg/kg dose of bretylium lauryl sulfate salt.
At three hours and twenty minutes, the dog's left anterior coronary artery was ligated to attempt to induce ventricular fibrillation by coronary occlusion.
Next, at three hours and thirty-seven minutes, 50 milliamps (the maximum current) was applied in an attempt to induce ventricular fibrillation and/or atrial fibrillation.

[4] = test system: dog; details: orally administered to a dog
[5] = test system: mongrel dog; experiment: Electrically induced atrial fibrillation, intravenous administration; format: in vivo; details: single intravenous dose, 15 mg bretylium tosylate per kg
Experimental: This electrode catheter delivered stimulating shocks consisting of a train of square wave pulses of 1 msec duration at 60 Hz. Atrial fibrillation was induced at a current of 6 milliamps.
Defibrillation was first attempted using a single dose of bretylium tosylate (Arnar-Stone, McGaw Park, Ill.) administered intravenously (the dose corresponded to 15 mg of bretylium tosylate per kg of the recipient).
Subsequently, a composition containing bretylium tosylate and aspirin was administered intravenously into the jugular vein. This composition was prepared using a commercially available tablet containing aspirin. The aspirin tablet was dissolved in warm water and filtered through a fine surgical gauze pad (to remove the bulk of the binder in the tablet). The resulting aspirin filtrate was then combined with an approximately equimolar amount of bretylium tosylate dissolved in 5% dextrose in water. Approximately 20 ml of this aqueous solution was injected into jugular vein of the atrially fibrillating dog (this dose corresponded to roughly 15 mg of bretylium tosylate per kg of the recipient and 6.5 mg of aspirin per Kg recipient).

[6] = Experimental: To measure the partition coefficient for a facilitating anion in the presence of a bretylium compound, an acidified aqueous solution of the bretylium compound with a non-facilitating anion (e.g., tosylate, bromide or chloride) is first prepared. Sodium bicarbonate and a salt comprising the facilitating anion to be tested are then added to the aqueous solution. The salt comprising the facilitating anion should be added in an amount sufficient to provide about a 1:1 molar ratio of the facilitating anion to the bretylium cation. The sodium bicarbonate is provided in an amount sufficient to produce a preselected pH value. An equal volume of n-octanol is then added to this solution. The solution is shaken. The mixture is centrifuged to separate an octanol-rich layer and an aqueous-rich layer, and the distribution ratio of the bretylium cation between the octanol-rich phase and the aqueous-rich phase (that is, the partition coefficient) may be measured. This analytical approach is believed to provide a suitable model for evaluating the bioavailability of the bretylium cation when utilized with a facilitating anion.
Several formulations of the present invention were tested using an n-octanol/aqueous buffer system to measure the partition coefficients for the bretylium cation in the presence of the facilitating anions of those formulations. An acidified aqueous solution of bretylium tosylate was first prepared. Sodium bicarbonate and a salt comprising the facilitating anion to be tested was then added to the aqueous solution. The salt comprising the facilitating anion was added in an amount sufficient to provide a 1:1 molar ratio of the facilitating anion to the bretylium cation. The sodium bicarbonate was provided in an amount sufficient to produce one of 4 preselected pH values. An equal volume of n-octanol was then added to this solution and the solution was shaken. The mixture was centrifuged to separate an octanol layer and an aqueous layer, and the distribution ratio of the bretylium cation between the octanol-rich phase and the aqueous-rich phase (that is, the partition coefficient) was measured. This analytical approach provides a suitable model for evaluating the bioavailability of the bretylium cation in the compositions tested.
The aqueous bretylium tosylate solutions used in the procedure were prepared in the following manner. An amount of one of the buffer solutions described below (3.0 ml when the most acidic buffer solution was used, and 4.0 ml when the other 3 buffer solutions were used) was transferred to a beaker or an Erlenmeyer flask by pipette. To the buffer solution was added 50 mg of bretylium tosylate per ml of buffer solution and an equimolar amount of the sodium salt of the facilitating anion. For example, where the facilitating anion tested was di(2-ethylhexyl)sulfosuccinate, 54 mg of sodium di(2-ethylhexyl)sulfosuccinate was added per ml of buffer solution. […] Test solutions comprising other facilitating agents were prepared in a similar manner.
Each of the pharmaceutical compositions was tested using each of the following sodium bicarbonate buffer systems:
The first buffer solution was prepared by dissolving 1.0 g of sodium bicarbonate in 100 ml of 0.95M HCl. A pH meter equipped with a conventional glass electrode and a calomel reference electrode was used to measure the nominal pH of this solution and the other 3 buffer solutions.
The second buffer solution was prepared by dissolving 7.5 g of sodium bicarbonate in 100 ml of 0.95M HCl.
The third buffer solution was prepared by dissolving 8.0 g of sodium bicarbonate in 100 ml of 0.95M HCl.

[7] = test system: dogs
[8] = water/octanol, relative to chloride; cited from earlier work
[9] = intravenous, about 20 mg bretylium tosylate per kg

Compound: CC[N+](C)(C)Cc1ccccc1Br.O=C([O-])c1ccccc1O [Bretylium Salicylate, bretylium salicylate]
ventricular or atrial fibrillation despite maximum electrical stimulation [1]: did not occur

Compound: CC(C)NCC(O)COc1ccc(CC(N)=O)cc1 (centres unmarked) [atenolol]
Mean % Increase in VFT ([2]; per kg: 0.05 mg atenolol, no bretylium, 1-5 hours): 330% ± 210%

Compound: CCCCCCCCCCCCOS(=O)(=O)[O-].CC[N+](C)(C)Cc1ccccc1Br [bretylium lauryl sulfate salt, bretylium lauryl sulfate]
rhythm 46 minutes after administration despite attempts to reinitiate atrial fibrillation with electrical stimulation ([3]; FIG. 8 legend): maintained a normal sinus rhythm
fibrillation induced by electrical stimulation at 50 milliamps (maximum current) ([3]; at 3 h 37 min of experiment): No fibrillation (atrial or ventricular) could be induced
time after dose at which atrial fibrillation ceased entirely ([3]; dog, in vivo, 50 mg/kg): 19 min
time after dose to periods of normal sinus rhythm ([3]; dog, in vivo, 50 mg/kg): Approximately 18 minutes
ventricular fibrillation after release of the coronary occlusion ([3]; following two minutes after release at 3 h 35 min): no ventricular fibrillation was observed
ventricular fibrillation on ligation of left anterior coronary artery ([3]; ligated at 3 h 20 min of experiment, 2 h after 50 mg/kg dose): No ventricular fibrillation was observed
ventricular or atrial fibrillation despite maximum electrical stimulation [1]: did not occur
antifibrillatory activity [4]: active antifibrilant

Compound: CC[N+](C)(C)Cc1ccccc1Br.Cc1ccc(S(=O)(=O)[O-])cc1 [bretylium tosylate, 2-bromobenzylethyldimethylammonium p-toluenesulfonate, reference compound]
effect on atrial fibrillation [5]: No effect
Mean % Increase in VFT ([2]; per kg: 20 mg bretylium tosylate, no β-receptor blocker, 1-5 hours after administration): 100-200% (no standard
PARTITION COEFFICIENT ([6]; pH 0.8): 0.33
PARTITION COEFFICIENT ([6]; pH 2.1): 0.48
PARTITION COEFFICIENT ([6]; pH 5.5): 0.45
PARTITION COEFFICIENT ([6]; pH 7.7): 0.49
time after administration at which a substantial increase in ventricular fibrillation threshold began [7, 9]: 12 to 15 min
time after administration of peak increase in ventricular fibrillation threshold [7, 9]: About 3 hours

PARTITION COEFFICIENT ([6]; pH 0.8): 0.35
PARTITION COEFFICIENT ([6]; pH 2.2): 0.49
PARTITION COEFFICIENT ([6]; pH 5.5): 0.51
PARTITION COEFFICIENT ([6]; pH 7.7): 2.33
Compound: CCCCC(CC)COP(=O)(O)OCC(CC)CCCC (centres unmarked) [di(2-ethylhexyl)phosphate]

PARTITION COEFFICIENT ([6]; pH 5.5): 4.16
PARTITION COEFFICIENT ([6]; pH 5.6): 4.94
PARTITION COEFFICIENT ([6]; pH 7): 5.03
PARTITION COEFFICIENT ([6]; pH 7.7): 3.61
Compound: CCCCC(CC)COC(=O)CC(C(=O)OCC(CC)CCCC)S(=O)(=O)O (centres unmarked) [di(2-ethylhexyl)sulfosuccinate]

Compound: COC(=O)CCc1ccc(OCC(O)CNC(C)C)cc1 (centres unmarked) [esmolol]
Mean % Increase in VFT ([2]; per kg: 25 to 300 μg esmolol, no bretylium, 1-5 hours): no significant increase

Compound: COCCc1ccc(OCC(O)CNC(C)C)cc1 (centres unmarked) [metoprolol]
Mean % Increase in VFT ([2]; per kg: 0.05 mg metoprolol, no bretylium, 1-5 hours): 96% ± 70%

Compound: CC(C)NCC(O)COc1cccc2ccccc12 (centres unmarked) [propranolol]
Mean % Increase in VFT ([2]; per kg: 0.075 mg propranolol, no bretylium, 1-5 hours): 110% ± 40%
increase in the ventricular fibrillation threshold ([7]; intravenous propranolol alone, 0.05 to 0.5 mg/kg): 110%±40%

Compound: Cc1ccc(S(=O)(=O)O)cc1 [tosylate anion, tosylate]
organic/aqueous phase distribution constant (K) [8]: about 320

Compound: lauryl sulfate
PARTITION COEFFICIENT ([6]; n-octanol/buffer, nominal pH 0.8, 1:1 molar facilitating anion:bretylium tosylate): 1.91
PARTITION COEFFICIENT ([6]; n-octanol/buffer, nominal pH 2.2, 1:1 molar facilitating anion:bretylium tosylate): 3.54
PARTITION COEFFICIENT ([6]; n-octanol/buffer, nominal pH 5.5, 1:1 molar facilitating anion:bretylium tosylate): 3.71
PARTITION COEFFICIENT ([6]; n-octanol/buffer, nominal pH 7.0, 1:1 molar facilitating anion:bretylium tosylate): 4.01
